# Where two headings read alike, the source gives them in different places.
# Legend:
# S. schenkii = experiment: Antifungal activity: Minimum Inhibitory Concentration; type: cell-based, Sporotrichon schenkii NCPF 3182
# Procedure: (§1) The antimicrobial activity was determined by inoculation of the test microorganism into suitable growth media containing solutions of the compounds at concentrations of 100, 50, 10, 5, 1.0, 0.5 and 0.1 μg/ml. The reference antibiotics used were Gentamicin for the antibacterial tests and Amphotericin B for the antimycotic and antifungal tests. After incubation the antimicrobial activity was recorded as the Minimal Inhibitory Concentration (M.I.C.), i.e., the lowest concentration preventing macroscopically visible growth, for each test compound against each organism.
# (§2) An initial solution of each formula (I) compound to be tested in sterile distilled water was prepared at a concentration of 1000 μg/ml. With appropriate dilutions using sterile distilled water, additional solutions were prepared at concentrations of 500, 100, 50, 10, 5 and 1 μg/ml.
# (§3) The A. corymbifera, A. fumigatus, S. schenkii, T. rubrum, T. mentagrophytes, M. canis and P. verrucosa strains were all maintained on Sabouraud-Dextrose Agar (Oxoid CM 41) by incubating for 14 days at 27° C. To prepare the inocula 30 ml volumes of Sabouraud-Liquid medium (Oxoid CM 147) were inoculated from the agar cultures and incubated at 27° C. until heavy uniform growth resulted. The mycelial growth was then broken up by shaking with glass beads.
# (§4) 1 Ml aliquots were removed from each of the cultures for the purpose of making viable counts and the cultures were then held at 4° C. The viable counts were made by preparing serial ten-fold dilutions of the cultures in sterile physiological saline and spreading on plates of Sabouraud-Dextrose Agar (Oxoid CM 41) which were then incubated at 27° C. for 14 days. When the viable counts had confirmed that each of the inocula contained approximately 10^6 colony forming units (C.F.U.) per ml the cultures were withdrawn from the refrigerator and used as the inocula for the tests.
# (§5) (c) For the tests on each of the remaining seven strains and each of the test and reference compounds, a series of 8 tubes containing 4.5 ml volumes of Sabouraud-Liquid Medium (Oxoid CM 147) were prepared. To 7 of these were added 0.5 ml volumes of the final solutions of the test compounds, giving final concentrations in the broths of 100, 50, 10, 5, 1.0, 0.5 and 0.1 μg/ml. To the eighth tube in each series was added 0.5 ml of the solvent used and diluted as for the preparation of the 500 μg/ml solution of the compound. This tube was used as a growth control. The tubes were then inoculated with 0.1 ml aliquots of the inocula prepared as in "(b) Fungi" above. The tubes were then incubated at 27° C. with continuous shaking for a period of one week. The tubes were then examined for evidence of growth as shown by the presence of mycelial growth in the medium and the lowest concentration of the test compound which prevented fungal growth was recorded as the Minimal Inhibitory Concentration. This test procedure was carried out on two separate days.
# A. fumigatus = experiment: as above; type: cell-based, Aspergillus fimigatus (A. fumigatus) NCPF 2140
# Procedure: as §1, §2, §3, §4, §5
# C. neoformans = experiment: Antimycotic activity: Minimum Inhibitory Concentration; type: cell-based, Cryptococcus neoformans NCPF 3184; conditions: Cryptococcus neoformans, pH 5.5, 30° C., 72 hours
# Procedure: as §1, §2
# The C. neoformans was also maintained on Sabouraud-Dextrose Agar (Oxoid CM 41), but in this case cultures for the preparation of the inoculum were incubated on this agar at 30° C. for 48 hours. A 4.5 ml volume of citric acid-phosphate buffer pH 5.5 plus Yeast-Nitrogen Base (Difco-0392-15) was then inoculated from the agar culture and incubated at 30° C. for 48 hours. A 0.1 ml aliquot of this culture was then added to 100 ml sterile physiological saline to give the final inoculum.
# (§6) (b) For the tests on each of the C. albicans, C. tropicalis and C. neoformans strains and each of the test and reference compounds, a series of 8 tubes containing 4.5 ml volumes of citric acid-phosphate buffer pH 5.5 plus Yeast-Nitrogen Base (Difco 0392-15) were prepared. To 7 of these were added 0.5 ml volumes of the final solutions of the test compounds, giving final concentrations in the broths of 100, 50, 10, 5, 1.0, 0.5 and 0.1 μg/ml. To the eighth tube in each series was added 0.5 ml of the solvent used and diluted as for the preparation of the 1000 μg/ml solution of the compound. This tube was used as the growth control. The tubes were then inoculated with 0.1 ml aliquots of the inocula prepared as in "(b) Fungi" above. The tubes inoculated with the C. albicans and C. tropicalis were inoculated at 37° C. for 72 hours and the tubes inoculated with the C. neoformans straim were incubated at 30° C. for 72 hours. […] The tubes were then examined for evidence of growth as shown by turbidity of the medium and the lowest concentration of the test compound which prevented fungal growth was recorded as the Minimal Inhibitory Concentration. This test procedure was carried out on two separate days.
# C. albicans = experiment: as above; type: cell-based, Candida albicans ATCC 10231
# Procedure: as §1, §2
# (§7) The two species, C. albicans and C. tropicalis, were maintained on Sabouraud-Dextrose Agar (Oxoid CM41) and cultures for the preparation of the inoculum were incubated on this agar at 37° C. for 48 hours. 4.5 Ml volumes of citric acid-phosphate buffer pH 5.5 plus Yeast-Nitrogen Base (Difco 0392-15) were then inoculated from the agar cultures and incubated at 37° C. for 48 hours. 0.1 Ml aliquots of these cultures were then added to 100 ml volumes of sterile physiological saline to give the final inocula.
# as §6
# P. verrucosa = experiment: Antifungal activity: Minimum Inhibitory Concentration; type: cell-based, Phialophore verrucosa NCPF 1119
# Procedure: as §1, §2, §3, §4, §5
# M. canis = experiment: as above; type: cell-based, Microsporum canis NCPF 351
# Procedure: as §1, §2, §3, §4, §5
# A. corymbifera = experiment: as above; type: cell-based, Absidia corymbifera NCPF 2001
# Procedure: as §1, §2
# A. corymbifera NCPF 2001
# as §3, §4, §5
# T. rubrum = experiment: as above; type: cell-based, Trichophyton rubrum NCPF 197
# Procedure: as §1, §2, §3, §4, §5
# T. mentagrophytes = experiment: as above; type: cell-based, Trichophyton mentagrophytes NCPF 410
# Procedure: as §1, §2
# T. mentagrophytes NCPF 410
# as §3, §4, §5
# C. tropicalis = experiment: Antimycotic activity: Minimum Inhibitory Concentration; type: cell-based, Candida tropicalis NCPF 3111; conditions: Candida tropicalis, pH 5.5, 37° C., 72 hours
# Procedure: as §1, §2, §7, §6
# S. aureus = experiment: Antibacterial activity: Minimum Inhibitory Concentration; type: cell-based, Staphylococcus aureus ATCC 6538; conditions: 24 hours
# Procedure: as §1, §2
# (§8) They were cultured and maintained on Tryptone Soy Agar (Oxoid CM 131), with the addition of 10% horse blood for the S. pyogenes.
# (§9) To prepare the organisms as inocula for the test, slopes of this medium were streaked with the organisms and incubated at 37° C. for 24 hours. 4.5 Ml volumes of Brian-Heart Infusion Broth (Oxoid CM 225) were then inoculated with a platinum loop from the agar slope cultures and incubated for 24 hours at 37° C. The final inocula were then prepared by adding 0.1 ml aliquots of the Brain-Heart Infusion Broth cultures to 100 ml volumes of sterile physiological saline.
# (§10) (a) For the test on each of the bacterial strains and each of the test and reference compounds, a series of 8 tubes containing 4.5 ml volumes of Brain-Heart Infusion Broth (Oxoid CM 225) were prepared. To 7 of these were added 0.5 ml volumes of the final solutions of the test compouns, giving final concentrations in the broths of 100, 50, 10, 5, 1.0, 0.5 and 0.1 μg/ml. To the eighth tube in each series was added 0.5 ml of the solvent used and diluted as for the preparation of the 1000 μg/ml solution of the compound. This tube was used as the growth control. The tubes were inoculated with 0.02 ml aliquots of the inocula prepared in accordance with "(a) Bacteria" above, and incubated at 37° C. for 24 hours. The tubes were then examined for evidence of bacterial growth as shown by turbidity of the medium and the lowest concentration of the test compound which prevented bacterial growth was recorded as the Minimal Inhibitory Concentration. This test procedure was carried out on two separate days.
# P. mirabilis = experiment: as above; type: cell-based, Proteus mirabilis NCTC 8559; conditions: P. mirabilis, 37° C., 24 hours
# Procedure: as §1, §2, §8, §9, §10
# S. pyogenes = experiment: as above; type: cell-based, Streptococcus pyogenes NCTC 8198; conditions: 24 hours
# Procedure: as §1, §2, §8, §9, §10
# E. coli = experiment: as above; type: cell-based, Escherichia coli ATCC 8739; conditions: 24 hours
# Procedure: as §1, §2, §8, §9, §10
# P. aeruginosa = experiment: as above; type: cell-based, Pseudomonas aeruginosa ATCC 9027; conditions: P. aeruginosa, 37° C., 24 hours
# Procedure: as §1, §2, §8, §9, §10
molecule,measurement,setting,value
"C[C@@H]1[C@H](O)[C@@H](C)/C=C/C=C/C=C/C=C/C=C/C=C/C=C/[C@H](O[C@@H]2O[C@H](C)[C@@H](O)[C@H](N)[C@@H]2O)C[C@@H]2O[C@](O)(C[C@@H](O)C[C@@H](O)[C@H](O)CC[C@@H](O)C[C@@H](O)CC(=O)O[C@H]1C)C[C@H](O)[C@H]2C(=O)O [Amphotericin B, reference compound]",Minimum Inhibitory Concentration,"S. schenkii; S. schenkii, Day 2, 27° C., one week",50 µg/mL
same,MIC,S. schenkii; read-out: Minimum Inhibitory Concentration,50 µg/mL
same,Minimum Inhibitory Concentration,"A. fumigatus; A. fumigatus, Day 2, 27° C., one week",5 µg/mL
same,MIC,"A. fumigatus; Aspergillus fumigatus, read-out: Minimum Inhibitory Concentration",5 µg/mL
same,MIC,"C. neoformans; pH 5.5, read-out: Minimum Inhibitory Concentrations, C. neoformans, Day 1",1 µg/mL
same,MIC,"C. neoformans; pH 5.5, read-out: Minimum Inhibitory Concentrations, C. neoformans, Day 2",0.5 µg/mL
same,Minimum Inhibitory Concentrations,"C. albicans; C. albicans, Day 2, pH 5.5, 37° C., 72 hours",1 µg/mL
same,MIC,"C. albicans; Candida albicans, pH 5.5, read-out: Minimum Inhibitory Concentrations",1 µg/mL
same,Minimum Inhibitory Concentration,"P. verrucosa; P. verrucosa, Day 2, 27° C., one week",10 µg/mL
same,MIC,"P. verrucosa; Phialophora verrucosa, read-out: Minimum Inhibitory Concentration",10 µg/mL
same,Minimum Inhibitory Concentration,"M. canis; M. canis, Day 2, 27° C., one week",1 µg/mL
same,MIC,"M. canis; Microsporum canis, read-out: Minimum Inhibitory Concentration",1 µg/mL
same,Minimum Inhibitory Concentration,"A. corymbifera; A. corymbifera, Day 2, 27° C., one week",5 µg/mL
same,MIC,"A. corymbifera; Lichtheimia corymbifera, read-out: Minimum Inhibitory Concentration",5 µg/mL
same,Minimum Inhibitory Concentration,"T. rubrum; T. rubrum, Day 2, 27° C., one week",50 µg/mL
same,MIC,"T. rubrum; Trichophyton rubrum, read-out: Minimum Inhibitory Concentration",50 µg/mL
same,Minimum Inhibitory Concentration,"T. mentagrophytes; T. mentagrophytes, Day 1, 27° C., one week",50 µg/mL
same,MIC,"T. mentagrophytes; Trichophyton mentagrophytes, read-out: Minimum Inhibitory Concentration",50 µg/mL
same,MIC,"C. tropicalis; pH 5.5, read-out: Minimum Inhibitory Concentrations, C. tropicalis, Day 1",1 µg/mL
same,MIC,"C. tropicalis; pH 5.5, read-out: Minimum Inhibitory Concentrations, C. tropicalis, Day 2",1 µg/mL
Gentamicin [reference compound],Minimum Inhibitory Concentration,"S. aureus; Day 1, 37° C.",0.5 µg/mL
same,Minimum Inhibitory Concentration,"S. aureus; Day 2, 37° C.",0.5 µg/mL
same,Minimum Inhibitory Concentration,P. mirabilis; Day 1,5 µg/mL
same,Minimum Inhibitory Concentration,P. mirabilis; Day 2,5 µg/mL
same,Minimum Inhibitory Concentration,"S. pyogenes; Day 1, 37° C.",0.5 µg/mL
same,Minimum Inhibitory Concentration,"S. pyogenes; Day 2, 37° C.",0.5 µg/mL
same,Minimum Inhibitory Concentration,"E. coli; Day 1, 37° C.",10 µg/mL
same,Minimum Inhibitory Concentration,"E. coli; Day 2, 37° C.",10 µg/mL
same,Minimum Inhibitory Concentration,P. aeruginosa; Day 1,1 µg/mL
same,Minimum Inhibitory Concentration,P. aeruginosa; Day 2,1 µg/mL

# — patent US4207326A, “Antimicrobial quaternary pyrazole derivatives” (Cilag-Chemie A.G., priority 1979, dated 1980)
